Measured values from patent US20150025031A1, “METABOLIC DOWNREGULATION FOR CELL SURVIVAL” (WAKE FOREST UNIVERSITY HEALTH SCIENCES, priority 2012, published 2015).
Entries after “also recorded” stand apart in the source; their conditions may differ.

Key:
[1] = molecular target: T1, adenosine deaminase (ADA) (Homo sapiens, UniProt P00813); test: Cell viability with adenosine derivatives in presence or absence of ADA, normoxic conditions (Example 2); type: cell-based; conditions: for conversion by ADA / stability towards adenosine degrading enzymes: presence of ADA
T1 construct: purchased Sigma
T1 sequence (P00813 1-363): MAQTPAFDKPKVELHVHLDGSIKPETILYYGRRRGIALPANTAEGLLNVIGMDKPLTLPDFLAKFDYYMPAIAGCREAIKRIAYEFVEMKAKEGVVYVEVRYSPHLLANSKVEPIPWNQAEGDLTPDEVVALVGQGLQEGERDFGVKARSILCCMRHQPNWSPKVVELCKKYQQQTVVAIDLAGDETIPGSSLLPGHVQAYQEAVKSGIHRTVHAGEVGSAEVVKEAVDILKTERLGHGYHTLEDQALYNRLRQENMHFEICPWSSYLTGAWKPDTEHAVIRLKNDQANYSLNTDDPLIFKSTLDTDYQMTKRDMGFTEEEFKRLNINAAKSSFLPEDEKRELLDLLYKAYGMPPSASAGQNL
Experimental: Three known ADA inhibitors were examined to evaluate the efficacies of adenosine derivatives: cladribine, pentostatin, and fludarabine phosphate. They have similar structures and molecular weights compared to adenosine, but different functional groups in the structures. Metabolic rate of cells were indirectly analyzed by cell viability in the presence or absence of adenosine derivatives and ADA in various doses. Cell viability with the drugs was evaluated under normoxic conditions.
Adenosine (Sigma-Aldrich), cladribine (Sigma, 2-Chloro-2′-deoxyadenosine), pentostatin (Tocris biosciences), and fludarabine phosphate (LGM Pharma) were used throughout this study.

[2] = test system: ischemic skin flap; test: Ischemic skin flap model; type: in vivo, nude mice; conditions: 100 mM in 2% agarose gel, vs control
Experimental: (§1) Skin flap model: The u-shaped skin flaps were created on the back of the nude mice, then silicone sheet with 100 mM CDA-containing 2% agarose gel on top of it was placed subcutaneously between muscle and skin layer (FIGS. 9A-9B). Control group received only the materials without CDA incorporated (n=3 per each group). At day 3, the flap necrosis was photographed, and H&E sections were prepared and microscopically examined.
as §1, with “The” for “Skin flap model: The”, “gel (A9045, Sigma)” for “gel”, “(FIG. 29A).” for “(FIGS. 9A-9B).”, “(n=3).” for “(n=3 per each group).”, “were” for “were prepared and”

[3] = test system: tibialis anterior (TA) muscle; test: Compartment syndrome (compression injury) model, tibialis anterior muscle function; type: in vivo, Sprague Dawley rats; conditions: for recovery in muscle function vs control group / percent recovery of muscle function: tetanic outcome at 100 Hz
Experimental: Compartment syndrome model: Neonatal blood pressure cuffs were placed on the hind limbs of Sprague Dawley rats. A pressure of 130-140 mmHg was held for 3 hrs to induce compartment syndrome in the tibialis anterior (TA) muscle. The experimental group received 50 mM CDA in 300 uL saline daily up to day 2 after injury whereas the control group only received an equal volume of saline (n=6 per each group). The measurement of muscle tetanic force was used to assess in vivo muscle function at before injury and day 3 & 7.
All animal studies were performed in strict compliance with Wake Forest University IACUC and NIH guidelines. Male Lewis rats (6-8 weeks old, Harlan) were anesthetized with 2-3% isofluorane prior to all procedures. A #2 sized neonatal blood pressure cuff (Trimline Medical Products Tempa-Kuff) was tightened around the hind limb proximal to the extensor digitorum longus (EDL) muscle. The time and amount of pressure used varied as indicated. Due to the extended length of anesthesia, rats were administered IP injections of saline over the course of the procedure. Rats were euthanized at 1, 2, 4, 7, 14 or 35d post injury. At least 3 separate experiments were analyzed.
Neonatal blood pressure cuffs were placed on the hind limbs of Sprague Dawley rats. A pressure of 130-140 mmHg was held for 3 hours to induce compartment syndrome in the tibialis anterior (TA) muscle. The experimental group received injection of 30 mM cladribine in 200 μL saline daily up to day 2 after injury whereas the control group only received an equal volume of saline (n=6). The measurement of muscle tetanic force was used to assess in vivo muscle function at before and right after injury, day 3, 7, 11 and 14.
Contractile function (i.e., torque-frequency relationship) of the left anterior crural muscles was measured in vivo using similar methodology as previously described for mice (Kalka et al., 2000, Proc Natl Acad Sci USA 97:3422-3427; Boutilier, 2001, J Exp Biol 204:3171-3181) After rats were anesthetized (2-2.5% isoflurane), the left hindlimb was aseptically prepared. The rat was then placed on a heated platform. The left knee was clamped and the left foot was secured to a custom-made foot plate that is attached to the shaft of an Aurora Scientific 305C-LR-FP servomotor, which in turn was controlled using a PC. Sterilized percutaneous needle electrodes were inserted through the skin for stimulation of the left common peroneal nerve. Electrical stimulus was applied using a Grass S88 stimulator with a constant current SIU (Grass Model PSIU6). Stimulation voltage and needle electrode placement were optimized first with a series of twitch contractions at 1 hz and then with 5 to 10 isometric contractions (400 ms train of 0.05-0.1 ms pulses at 100 Hz). Contractile function of the anterior crural muscles was assessed by measuring maximal isometric torque as a function of stimulation frequency (1-200 Hz). For real-time analysis of torque and length changes, voltage outputs were sampled at 4000 Hz, converted to a digital signal using an A/D board (National Instruments PCI 6221) and recorded using a PC loaded with a custom-made Labview®-based program (provided by the U.S. Army Institute of Surgical Research).

[4] = test system: Rat tibialis anterior (TA) muscle tissues; test: In vitro ischemic tibialis anterior muscle tissue survival (H&E, TUNEL); type: cell-based, Sprague Dawley rats; conditions: 5 mM injected, 3 days incubation
Experimental: Rat tibialis anterior (TA) muscle tissues were dissected immediately after sacrifice of Sprague Dawley rats (17 weeks old, 380-400 g, Harlan), injected with blank, 5 mM of adenosine or cladribine, and then incubated in 5 mL of complete media for 3 days.
The tissue samples were fixed in 10% neutral buffered formalin (Sigma-Aldrich), 6 μm sections were generated by a cryotome (Leica), and stained with hematoxyline and eosin (H&E) and with TUNEL staining. Microscopic analyses were performed using a light microscope (Zeiss M1) and ImagePro software.

[5] = test system: C2C12 mouse myoblasts; conditions: 5 mM, regardless of the presence of ADA
[6] = test system: C2C12 mouse myoblasts

## Nc1nc(Cl)nc2c1ncn2[C@H]1C[C@H](O)[C@@H](CO)O1 [cladribine, 2-Chloro-2′-deoxyadenosine]
[1]; drugs removed on day 5
  recovery of metabolic state after drug removal: recovered their normal metabolic state once the drugs were removed
[1]; normoxic conditions, with or without ADA, various doses
  depression of cell metabolic rate (cell viability) in presence of ADA: best able to inhibit ADA and depress the cells' metabolic rate; also recorded: maintained the cells in hypometabolic steady state the longest
[1]
  conversion by ADA / stability towards adenosine degrading enzymes: bypassed the conversion by ADA
[1]; listed as CDA
  conversion by ADA / stability towards adenosine degrading enzymes: more stable than adenosine in the presence of adenosine degrading enzymes
[2]; 3 days
  histological examination of skin flap (H&E): better preservation of general tissue architecture, thickness of the skin and epidermis height
[2]; subcutaneous, day 3 post-operation
  distal flap necrosis (skin discoloration): clearly reduced
[3]; 30 mM in 200 μL saline daily up to day 2, 7 days after injury
  TA muscle twitch isometric torque: significantly increased
[3]; 30 mM in 200 μL saline daily up to day 2
  recovery in muscle function vs control group: significant acceleration of recovery in muscle function
[3]; 30 mM in 200 μL saline daily up to day 2, listed as CDA
  recovery in muscle function vs control group: significant increase in percent recovery up to day 11
[3]; 30 mM in 200 μL saline daily up to day 2, vs saline group
  newly forming vessels (H&E, immunostaining): more newly forming vessels
[3]; 50 mM in 300 uL saline daily up to day 2, 7 days after injury
  anterior crural muscle twitch isometric torque: significantly increased
[3]; day 3, 50 mM in 300 uL saline daily up to day 2
  percent recovery of muscle function: ~10%
[3]; day 7, 50 mM in 300 uL saline daily up to day 2
  percent recovery of muscle function: ~35%
[4]
  muscle structure (H&E): most preserved muscle structure
  number of live nuclei (TUNEL): increased number of live nuclei
[4]; vs control and adenosine
  area of fiber: significantly increased area of fiber
[5]; 7 days hypoxia
  cell population under hypoxic condition: maintained minimal population with significant difference when compared to control
[5]
  proliferation after drug and hypoxia removed: regained their proliferation capability
[6]; 5 mM, with or without ADA
  metabolism after drug and hypoxia removed: regained metabolism activity
[6]; 5 mM, with or without ADA, MTS
  cellular metabolism under hypoxia: kept in hypometabolic steady state without being affected by ADA
[6]; hypoxia, in the presence and absence of ADA
  metabolic activity per cell vs adenosine treated cells: significantly lower metabolic activity per cell
